Measurements: ChEMBL document CHEMBL1201862, “PubChem BioAssay data set” (2004)
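Cells were grown in 96-well plates and exposed to each compound for 48 hours at five concentrations; endpoints were interpolated linearly between bracketing concentrations, or set to the highest concentration if not reached. The concentration for 50% growth inhibition is given as GI50.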 Active and inactive are the calls of the source. Rule as the data show it: active = GI50 up to about 1.1 µM and inactive = higher.

Legend:
Experiment in all cases: NCI-60 cell line screen, 48 h
[1] = test system: SNB-19
[2] = test system: RXF 393
[3] = test system: NCI-H226
[4] = test system: UACC-62
[5] = test system: EKVX
[6] = test system: HT-29
[7] = test system: CCRF-CEM
[8] = test system: MOLT-4
[9] = test system: LOX IMVI
[10] = test system: HCT-15
[11] = test system: CAKI-1
[12] = test system: SK-MEL-2
[13] = test system: HCC 2998
[14] = test system: OVCAR-5
[15] = test system: SR
[16] = test system: U-251
[17] = test system: T47D
[18] = test system: DU-145
[19] = test system: MDA-MB-435
[20] = test system: NCI/ADR-RES

| Compound | GI50 [1] | GI50 [2] | GI50 [3] | GI50 [4] | GI50 [5] | GI50 [6] | GI50 [7] | GI50 [8] | GI50 [9] | GI50 [10] | GI50 [11] | GI50 [12] | GI50 [13] | GI50 [14] | GI50 [15] | GI50 [16] | GI50 [17] | GI50 [18] | GI50 [19] | GI50 [20] |
| --- | --- | --- | --- | --- | --- | --- | --- | --- | --- | --- | --- | --- | --- | --- | --- | --- | --- | --- | --- | --- |
| CCCCCCC(O)CC[C@H]1CCC[C@@H](C)N1 (some centres not stated) | > 10 µM (inactive) | > 100 µM (inactive) | > 100 µM (inactive) | 72.6 µM (inactive) | > 100 µM (inactive) | 29 µM (inactive) | > 100 µM (inactive) | > 100 µM (inactive) | > 100 µM (inactive) | > 31.6 µM | > 100 µM (inactive) | > 10 µM (inactive) | > 19.9 µM (inactive) | > 10 µM (inactive) | > 100 µM (inactive) | > 31.6 µM (inactive) |  |  |  |  |
| C=CC[C@@H](N)C(=O)N(C)[C@@H](C)[C@@H](O)c1ccccc1 | > 100 µM (inactive) |  | > 100 µM (inactive) | > 100 µM (inactive) |  |  | > 100 µM (inactive) | > 100 µM (inactive) | > 100 µM (inactive) | > 100 µM | > 100 µM (inactive) | > 100 µM (inactive) |  |  |  | > 100 µM (inactive) | > 100 µM (inactive) | > 100 µM (inactive) | > 100 µM (inactive) | > 100 µM (inactive) |
| O=[N+]([O-])c1ccc(CSc2nn(Cc3ccc([N+](=O)[O-])cc3)cc3ncnc2-3)cc1 |  |  | 38.4 µM (inactive) | 17.5 µM (inactive) | 69.3 µM (inactive) | 29.6 µM (inactive) | > 10 µM (inactive) | 23.5 µM (inactive) | 33.9 µM (inactive) | 43.1 µM | 35.2 µM (inactive) | 19.7 µM (inactive) | 35.6 µM (inactive) | > 100 µM (inactive) |  | > 10 µM (inactive) | 44.6 µM (inactive) |  | 21.1 µM (inactive) | 44 µM (inactive) |
| Cn1c(C(C#N)c2nc(Cl)ncc2Br)nc2ccccc21 (configuration not stated) | > 100 µM (inactive) | > 100 µM (inactive) | > 100 µM (inactive) |  | > 100 µM (inactive) | > 100 µM (inactive) |  | > 100 µM (inactive) | > 100 µM (inactive) | > 100 µM | > 100 µM (inactive) |  |  | > 100 µM (inactive) |  | > 100 µM (inactive) | > 100 µM (inactive) | > 100 µM (inactive) | > 100 µM (inactive) | > 100 µM (inactive) |
| CC1(C)OC2OC(COC(=O)c3ccc(C#N)cc3)C3OC(C)(C)OC3C2O1 (configuration not stated) | > 75 µM (inactive) | > 75 µM (inactive) | > 75 µM (inactive) | > 75 µM (inactive) | > 75 µM (inactive) | > 75 µM (inactive) | 50.7 µM (inactive) | > 75 µM (inactive) | > 75 µM (inactive) | > 75 µM | > 75 µM (inactive) | > 75 µM (inactive) | > 75 µM (inactive) | > 75 µM (inactive) | > 75 µM (inactive) | > 75 µM (inactive) |  | > 75 µM (inactive) | > 75 µM (inactive) | > 75 µM (inactive) |
| CC(C)(C)OC(=O)C1C(=O)NC(=O)CC1CC(OCc1ccccc1)C(COCc1ccccc1)OCc1ccccc1 (configuration not stated) | 20.6 µM (inactive) | 2.55 µM (inactive) | 10.9 µM (inactive) |  | 16.5 µM (inactive) | 3.45 µM (inactive) | 11.6 µM (inactive) | 2.88 µM (inactive) | 10.9 µM (inactive) | 4.41 µM |  |  | 3.81 µM (inactive) |  | 3.87 µM (inactive) | 5.18 µM (inactive) |  | 23.6 µM (inactive) | 5.3 µM (inactive) | 10 µM (inactive) |
| CC1(C)OC(=O)C(C)(C)C(=O)O1 | > 100 µM (inactive) |  | > 100 µM (inactive) | > 100 µM (inactive) | > 100 µM (inactive) | > 100 µM (inactive) | > 100 µM (inactive) | > 100 µM (inactive) | > 100 µM (inactive) | > 100 µM | > 100 µM (inactive) | > 100 µM (inactive) | > 100 µM (inactive) | > 100 µM (inactive) | > 100 µM (inactive) | > 100 µM (inactive) | > 100 µM (inactive) | > 100 µM (inactive) |  | > 100 µM (inactive) |
| N#C/C(=C\c1ccccc1Br)C(=O)c1ccccc1 | 20.4 µM (inactive) | 32.9 µM (inactive) | > 54.8 µM (inactive) | 29.5 µM (inactive) | > 100 µM (inactive) | > 57.7 µM (inactive) | 6.95 µM (inactive) | 12.2 µM (inactive) | 11.8 µM (inactive) | 8.34 µM | > 71.8 µM (inactive) | > 65.5 µM (inactive) | > 95.7 µM (inactive) | > 61.7 µM (inactive) | 13.3 µM (inactive) | > 48.3 µM (inactive) |  |  |  |  |
| C[C@H]1CN[C@@H]2[C@@H](C)[C@H]3[C@@H](C[C@H]4[C@@H]5CC[C@H]6C[C@@H](N)CC[C@]6(C)[C@H]5CC[C@]34C)O[C@@]2(O)C1 | 2.07 µM (inactive) |  | 2.38 µM (inactive) | 1.95 µM (inactive) | 3.34 µM (inactive) | 1.19 µM (inactive) | 0.561 µM (active) | 1.69 µM (inactive) | 1.73 µM (inactive) | 1.38 µM | 2.37 µM (inactive) | 3.06 µM (inactive) | 1.8 µM (inactive) | 5.47 µM (inactive) |  | 1.67 µM (inactive) | 2.23 µM (inactive) | 4.03 µM (inactive) | 1.6 µM (inactive) | 2.54 µM (inactive) |
| CC(=O)OCCC1c2ccccc2-n2nc(-c3ccccc3)c(O)c21 (configuration not stated) | 14.6 µM (inactive) | 12.3 µM (inactive) | 26 µM (inactive) |  | 15.9 µM (inactive) | 21.2 µM (inactive) | 11.6 µM (inactive) | 9.66 µM (inactive) | 13.7 µM (inactive) | 16.8 µM | 18.7 µM (inactive) | 27.1 µM (inactive) | 24.8 µM (inactive) | 19.3 µM (inactive) | 11.4 µM (inactive) | 13.3 µM (inactive) |  | 17.7 µM (inactive) | 16.9 µM (inactive) | 14.8 µM (inactive) |
| CCC(=O)C(C)C(=O)C(=O)C(=O)OC (configuration not stated) | > 100 µM (inactive) | > 63.5 µM (inactive) | > 100 µM (inactive) | > 100 µM (inactive) | > 100 µM (inactive) | 97.1 µM (inactive) | > 46.9 µM (inactive) | > 51.4 µM (inactive) | > 80.7 µM (inactive) | > 55.8 µM | > 100 µM (inactive) | > 100 µM (inactive) | > 100 µM (inactive) | > 100 µM (inactive) | > 100 µM (inactive) | > 47.3 µM (inactive) |  |  |  |  |
| CCCOc1ccc(/C(Cl)=C(\C=O)c2ccc(OC)c(OC)c2)cc1OCCC | 23.1 µM (inactive) | 3.28 µM (inactive) | 13.2 µM (inactive) | 3.52 µM (inactive) | 10.9 µM (inactive) | 5.2 µM (inactive) | 3.59 µM (inactive) | 2.31 µM (inactive) | 10.5 µM (inactive) | 5.47 µM | 75.3 µM (inactive) | 11.6 µM (inactive) | 3.53 µM (inactive) | 39.3 µM (inactive) | 2.52 µM (inactive) | 5.73 µM (inactive) |  |  |  |  |
